In US12528812B2 (Genentech, Inc., priority 2020, dated 2026):

Columns and labels:
[1] = target: Recombinant human JAK2 kinase domain protein (Residues 812-1132) (Homo sapiens, UniProt O60674); experiment: JAK2 biochemical assay (LabChip mobility shift, Ki); details: Biochem JAK2 Ki
[2] = target: T1, recombinant human JAK1 kinase domain protein (Residues 854-1154) (Homo sapiens, UniProt P23458); experiment: JAK1 biochemical assay (LabChip mobility shift, Ki); details: read-out: Biochem JAK1 Ki
T1 construct: human JAK1 kinase domain protein (Residues 854-1154); purchased Proteros Biostructures GmbH (Martinsried, Germany); host or cells: insect cells
T1 sequence (P23458 854-1154): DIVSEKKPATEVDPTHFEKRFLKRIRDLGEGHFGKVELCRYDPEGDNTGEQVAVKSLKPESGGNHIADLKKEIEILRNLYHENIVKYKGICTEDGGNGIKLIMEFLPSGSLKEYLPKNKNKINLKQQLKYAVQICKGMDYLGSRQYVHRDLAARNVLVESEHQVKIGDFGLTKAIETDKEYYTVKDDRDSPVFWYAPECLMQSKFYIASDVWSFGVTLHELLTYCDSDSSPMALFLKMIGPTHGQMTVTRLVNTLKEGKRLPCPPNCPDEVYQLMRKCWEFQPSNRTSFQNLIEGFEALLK

[3] = test system: IL-13-stimulated STAT6 phosphorylation in human lung bronchial epithelial BEAS-2B cell line; experiment: P-STAT6 BEAS-2B + IL-13 cell assay; format: cell-based; details: Homo sapiens, BEAS-2B, BEAS2B cells, IL13 stimulation; read-out: Cellular JAK1 PSTAT6 BEAS2B + IL13
Procedure: In order to study the effect of JAK1 inhibitors in a cell line that is relevant to the cell biology of human asthma, an IL-13-stimulated STAT6 phosphorylation assay in the human lung bronchial epithelial BEAS-2B cell line was developed.
BEAS-2B cells (ATCC′ CRL-9609™) were grown in Bronchial Epithelial Growth Medium (BEGM) (Lonza Catalog No. CC-3170; Walkersville, MD; or PromoCell Catalog No. C-21060; Heidelberg, Germany). Test compound stock solutions (0.5 mM in DMSO) were serially diluted 1:2 in DMSO to generate a 10-point concentration curve (at 500× test concentration), which was further diluted by a 50-fold dilution step in BEGM to generate a 10× concentration curve (in 2% DMSO). Cells were plated at 100,000 cells/well in 200 μL of BEGM in 96-well plates and incubated for 48 hours at 37° C. in a humidified incubator. Medium was aspirated from the cells and replaced with 70 μL of fresh BEGM. Diluted test compound (10 μL; or 2% DMSO in assay medium) was added to the cells, and the plates were incubated for 1 hour at 37° C. in a humidified incubator. Twenty μL of 250 ng/mL human recombinant IL-13 (Bio Techne Catalog No. 213-ILB) was then added to the cells and incubated for 15 minutes at 37° C. Medium was aspirated from the cells and 60 μL of ice-cold 1× cell lysis buffer (Cell Signaling Technologies; Catalog No. 9803S) containing 1 mM PMSF was added to the cells. Assay plates were incubated at −80° C. for at least 1 hour. P-STAT6 was measured by coating GAR plates (MSD; Catalog No. L45RA-1) with rabbit anti-human total STAT6 antibody (Cell Signaling Technologies; Catalog No. 9362S), incubating the cell lysates in the coated plates overnight at 4° C., and then detecting with mouse anti-phospho-STAT6 (Tyr641) Clone 16E12 antibody (Millipore; Catalog No. 05-590, custom labeled by MSD with SULFO-tag) using standard MSD plate processing, washing, and detection protocols. Plates were read on the MESO SECTOR 5600.
Data analysis was performed by subtracting negative control values from all wells and determining percent of control using the positive control values; the IC50 was determined with a four-parameter logistic fit model as shown in Equation 4.

Chain of Recombinant human JAK2 kinase domain protein (Residues 812-1132) (O60674 812-1132): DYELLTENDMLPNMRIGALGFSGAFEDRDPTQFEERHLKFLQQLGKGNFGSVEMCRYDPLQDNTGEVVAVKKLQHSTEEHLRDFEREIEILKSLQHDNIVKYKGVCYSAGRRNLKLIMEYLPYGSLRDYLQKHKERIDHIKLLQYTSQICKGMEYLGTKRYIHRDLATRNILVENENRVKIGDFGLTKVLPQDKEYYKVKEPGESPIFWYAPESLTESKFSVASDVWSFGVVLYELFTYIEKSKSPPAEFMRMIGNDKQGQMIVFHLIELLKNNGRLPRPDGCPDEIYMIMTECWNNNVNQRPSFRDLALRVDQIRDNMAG

Row | Structure (SMILES) | Ki [1] | Ki [2] | IC50 [3]
1 | Cn1cc(NC(=O)c2cnn3cccnc23)c(-c2cc(Oc3cccc(CN4CCO[C@H](CO)C4)c3)ccc2OC(F)F)n1 (stereo in doubt) [Example 94, N-[3-[2-(difluoromethoxy)-5-[3-[[rac-(2R)-2-(hydroxymethyl)morpholin-4-yl]methyl]phenoxy]phenyl]-1-methyl-pyrazol-4-yl]pyrazolo[1,5-a]pyrimidine-3-carboxamide] | 1.1 nM | 1.7 nM | 40 nM
2 | NCc1ccc(Oc2ccc(OC(F)F)c(-c3n[nH]cc3NC(=O)c3cnn4cccnc34)c2)cc1 [Example 3, N-[3-[5-[4-(aminomethyl)phenoxy]-2-(difluoromethoxy)phenyl]-1H-pyrazol-4-yl]pyrazolo[1,5-a]pyrimidine-3-carboxamide] | 0.89 nM | 3.3 nM | 15 nM
3 | O=C(Nc1c[nH]nc1-c1cc(Oc2cccc(OCC(F)(F)F)c2)ccc1OC(F)F)c1cnn2cccnc12 [Example 4, N-[3-[2-(difluoromethoxy)-5-[3-(2,2,2-trifluoroethoxy)phenoxy]phenyl]-1H-pyrazol-4-yl]pyrazolo[1,5-a]pyrimidine-3-carboxamide] | 0.7 nM | 1.1 nM | 18 nM
4 | O=C(Nc1c[nH]nc1-c1cc(Oc2ccc(OCC(F)(F)F)cc2)ccc1OC(F)F)c1cnn2cccnc12 [Example 5, N-[3-[2-(difluoromethoxy)-5-[4-(2,2,2-trifluoroethoxy)phenoxy]phenyl]-1H-pyrazol-4-yl]pyrazolo[1,5-a]pyrimidine-3-carboxamide] | 0.91 nM | 1.1 nM | 18 nM
5 | NCc1ccccc1Oc1ccc(OC(F)F)c(-c2n[nH]cc2NC(=O)c2cnn3cccnc23)c1 [Example 7, N-[3-[5-[2-(aminomethyl)phenoxy]-2-(difluoromethoxy)phenyl]-1H-pyrazol-4-yl]pyrazolo[1,5-a]pyrimidine-3-carboxamide] | 1.9 nM | 1.5 nM | 360 nM
6 | O=C(Nc1c[nH]nc1-c1cc(Oc2cccc(CNC3COC3)c2)ccc1OC(F)F)c1cnn2cccnc12 [Example 11, N-[3-[2-(difluoromethoxy)-5-[3-[(oxetan-3-ylamino)methyl]phenoxy]phenyl]-1H-pyrazol-4-yl]pyrazolo[1,5-a]pyrimidine-3-carboxamide] | 0.69 nM | 1 nM | 190 nM
7 | Cn1cc(NC(=O)c2cnn3cccnc23)c(-c2cc(Oc3cccc(CN)c3)ccc2OC(F)F)n1 [Example 13, N-[3-[5-[3-(aminomethyl)phenoxy]-2-(difluoromethoxy)phenyl]-1-methyl-pyrazol-4-yl]pyrazolo[1,5-a]pyrimidine-3-carboxamide] | 0.43 nM | 0.21 nM | 13 nM
8 | CC(N)c1cccc(Oc2ccc(OC(F)F)c(-c3n[nH]cc3NC(=O)c3cnn4cccnc34)c2)c1 (stereo not drawn) [Example 14, N-[3-[5-[3-(1-aminoethyl)phenoxy]-2-(difluoromethoxy)phenyl]-1H-pyrazol-4-yl]pyrazolo[1,5-a]pyrimidine-3-carboxamide] | 0.38 nM | 0.25 nM | 26 nM
9 | CNCc1cccc(Oc2ccc(OC(F)F)c(-c3n[nH]cc3NC(=O)c3cnn4cccnc34)c2)c1 [Example 15, N-[3-[2-(difluoromethoxy)-5-[3-(methylaminomethyl)phenoxy]phenyl]-1H-pyrazol-4-yl]pyrazolo[1,5-a]pyrimidine-3-carboxamide] | 0.4 nM | 0.32 nM | 24 nM
10 | Cn1cc(NC(=O)c2cnn3cccnc23)c(-c2cc(Oc3ccc(CN)cc3)ccc2OC(F)F)n1 [Example 20, N-[3-[5-[4-(aminomethyl)phenoxy]-2-(difluoromethoxy)phenyl]-1-methyl-pyrazol-4-yl]pyrazolo[1,5-a]pyrimidine-3-carboxamide] | 0.59 nM | 1.5 nM | 19 nM

The next compounds have a lower Ki [1] than those just listed; values first:

Row | Ki [1] | Ki [2] | Structure (SMILES) | IC50 [3]
11 | 0.36 nM | 0.34 nM | O=C(Nc1c[nH]nc1-c1cc(Oc2cccc(C3CNCCO3)c2)ccc1OC(F)F)c1cnn2cccnc12 (stereo not drawn) [Example 9, N-[3-[2-(difluoromethoxy)-5-(3-morpholin-2-ylphenoxy)phenyl]-1H-pyrazol-4-yl]pyrazolo[1,5-a]pyrimidine-3-carboxamide] | 93 nM
12 | 0.28 nM | 0.39 nM | NCc1cc(Oc2ccc(OC(F)F)c(-c3n[nH]cc3NC(=O)c3cnn4cccnc34)c2)ccc1F [Example 19, N-[3-[5-[3-(aminomethyl)-4-fluoro-phenoxy]-2-(difluoromethoxy)phenyl]-1H-pyrazol-4-yl]pyrazolo[1,5-a]pyrimidine-3-carboxamide] | 49 nM
13 | 0.23 nM | 0.29 nM | Cn1cc(NC(=O)c2cnn3cccnc23)c(-c2cc(Oc3cnn([C@H]4CNCC[C@@H]4O)c3)ccc2OC(F)F)n1 (stereo in doubt) [Example 180, N-[3-[2-(difluoromethoxy)-5-[1-[rac-(3S,4S)-4-hydroxy-3-piperidyl]pyrazol-4-yl]oxy-phenyl]-1-methyl-pyrazol-4-yl]pyrazolo[1,5-a]pyrimidine-3-carboxamide] | 95 nM
14 | 0.21 nM | 0.33 nM | CN1CC[C@@H](O)[C@H](n2cc(Oc3ccc(OC(F)F)c(-c4nn(C)cc4NC(=O)c4cnn5cccnc45)c3)cn2)C1 (stereo in doubt) [Example 185, N-[3-[2-(difluoromethoxy)-5-[1-[rac-(3R,4R)-4-hydroxy-l-methyl-3-piperidyl]pyrazol-4-yl]oxy-phenyl]-1-methyl-pyrazol-4-yl]pyrazolo[1,5-a]pyrimidine-3-carboxamide] | 62 nM
15 | 0.21 nM | 0.21 nM | N#CCc1cccc(Oc2ccc(OC(F)F)c(-c3n[nH]cc3NC(=O)c3cnn4cccnc34)c2)c1 [Example 12, N-[3-[5-[3-(cyanomethyl)phenoxy]-2-(difluoromethoxy)phenyl]-1H-pyrazol-4-yl]pyrazolo[1,5-a]pyrimidine-3-carboxamide] | 18 nM
16 | 0.21 nM | 0.42 nM | Cc1ccc(Oc2ccc(OC(F)F)c(-c3n[nH]cc3NC(=O)c3cnn4cccnc34)c2)cc1CC(=O)N(C)C [Example 17, N-[3-[2-(difluoromethoxy)-5-[3-[2-(dimethylamino)-2-oxo-ethyl]-4-methyl-phenoxy]phenyl]-1H-pyrazol-4-yl]pyrazolo[1,5-a]pyrimidine-3-carboxamide] | 26 nM
17 | 0.2 nM | 0.23 nM | NCc1cccc(Oc2ccc(OC(F)F)c(-c3n[nH]cc3NC(=O)c3cnn4cccnc34)c2)c1 [Example 6, N-[3-[5-[3-(aminomethyl)phenoxy]-2-(difluoromethoxy)phenyl]-1H-pyrazol-4-yl]pyrazolo[1,5-a]pyrimidine-3-carboxamide] | 11 nM
18 | 0.19 nM | 0.22 nM | O=C(Nc1c[nH]nc1-c1cc(Oc2cccc(CNCCO)c2)ccc1OC(F)F)c1cnn2cccnc12 [Example 16, N-[3-[2-(difluoromethoxy)-5-[3-[(2-hydroxyethylamino)methyl]phenoxy]phenyl]-1H-pyrazol-4-yl]pyrazolo[1,5-a]pyrimidine-3-carboxamide] | 170 nM
19 | 0.18 nM | 0.24 nM | Cc1ccc(Oc2ccc(OC(F)F)c(-c3n[nH]cc3NC(=O)c3cnn4cccnc34)c2)cc1C(=O)N(C)C [Example 10, N-[3-[2-(difluoromethoxy)-5-[3-(dimethylcarbamoyl)-4-methyl-phenoxy]phenyl]-1H-pyrazol-4-yl]pyrazolo[1,5-a]pyrimidine-3-carboxamide] | 42 nM
20 | 0.17 nM | 0.17 nM | O=C(Nc1c[nH]nc1-c1cc(Oc2ccc3c(c2)CNCC3)ccc1OC(F)F)c1cnn2cccnc12 [Example 18, N-[3-[2-(difluoromethoxy)-5-(1,2,3,4-tetrahydroisoquinolin-7-yloxy)phenyl]-1H-pyrazol-4-yl]pyrazolo[1,5-a]pyrimidine-3-carboxamide] | 32 nM
21 | 0.14 nM | 0.18 nM | N#CCc1ccc(Oc2ccc(OC(F)F)c(-c3n[nH]cc3NC(=O)c3cnn4cccnc34)c2)cc1 [Example 8, N-[3-[5-[4-(cyanomethyl)phenoxy]-2-(difluoromethoxy)phenyl]-1H-pyrazol-4-yl]pyrazolo[1,5-a]pyrimidine-3-carboxamide] | 7.6 nM
